Laboratory results reported in patent US4386090A, “Nitrogen containing 2,3-dihydro naphthalenes, compositions and use” (Delalande S.A., priority 1980, dated 1983).
Structures can show the parent of a compound that is named as a salt.

Legend:
[1] = tested on: mice; test: antidepressive activity, antagonism to ptosis after intravenous injection of reserpine; format: in vivo; settings: Mus musculus, ip, 1 h, i.p., ptosis observed an hour after i.v. reserpine 2 mg/kg, read-out: ED 50 antidepressive property
Excerpt: GOURET and J. THOMAS in J. Pharmacol. (Paris) (1973), 4, 401.

[2] = tested on: mice; test: analgesic activity, phenylbenzoquinone test (E. SIEGMUND); format: in vivo; settings: Mus musculus, ip, read-out: ED 50 analgesic property
Excerpt: Soc. Exp. Biol. and Med. 95, 729, (1957).

[3] = acute toxicity (LD 50); settings: in vivo, ip
Excerpt: To illustrate the invention, there are shown in table IV below, the results obtained in these two tests and the acute toxicity (LD 50) of some compounds of formula (I).

Row | SMILES | ED50 [1] [mg/kg] | ED50 [2] [mg/kg] | LD50 [3] [mg/kg]
1 | CN(C)CC1COc2ccccc2C(c2ccccc2F)=N1 (stereo not drawn) [compound 41] | 3.5 | 7.2 | 62
2 | CN(C)CCC1Cc2ccccc2C(c2cccc(F)c2)=N1 (stereo not drawn) [compound 23] | 2 | 2 | 55
3 | CN(C)CCCC1Cc2ccccc2C(c2ccccc2F)=N1 (stereo not drawn) [compound 39] | 0.7 | 1.9 | 100
4 | CN(C)CC1C=C(c2ccccc2)c2ccccc2C1 (stereo not drawn) [Code Number 1, 3-Dimethylaminomethyl 1-phenyl 3,4-dihydro naphthalene, oxalate] | 10 | 6 | 62
5 | CN(C)CCC1Cc2ccccc2C(c2ccccc2Cl)=N1 (stereo not drawn) [compound 25] | 3.7 | 3.8 | 60
6 | CN(C)CC1COc2ccccc2C(c2cccc(Cl)c2)=N1 (stereo not drawn) [compound 43] | 3 | 10 | 65
7 | CN(C)CCC1Cc2ccccc2C(c2cccnc2)=N1 (stereo not drawn) [compound 108] | 12 | 7.6 | 90
8 | CN(C)CCC1Cc2ccccc2C(c2ccccc2C(F)(F)F)=N1 (stereo not drawn) [compound 103] | 3.8 |  | 70
9 | Cc1ccc2c(c1)C(c1ccccc1)=NC(CN1CCCCC1)C2 (stereo not drawn) [compound 97] |  | 10 | 52
10 | COc1ccccc1C1=NC(CCN(C)C)Cc2ccccc21 (stereo not drawn) [compound 28] | 3 | 10 | 42
11 | CN(C)CC1COc2ccccc2C(c2ccccc2Cl)=N1 (stereo not drawn) [compound 42] | 7 | 3.5 | 70
12 | CN(C)CCC1Cc2ccccc2C(c2ccc(F)cc2)=N1 (stereo not drawn) [compound 24] | 2.1 | 8.4 | 61
13 | CN(C)CCC1Cc2ccccc2C(c2ccccn2)=N1 (stereo not drawn) [compound 86] | 4 | 10 | 94
14 | CN(C)CCC1Cc2ccccc2C(C2CCCCC2)=N1 (stereo not drawn) [compound 37] | 10 | 10 | 82
15 | COc1cc2c(cc1OC)C(c1ccccc1)=NC(CCN(C)C)C2 (stereo not drawn) [compound 105] | 30 | 12 | 165
16 | CN(C)CC1Cc2ccc(Cl)cc2C(c2ccccc2)=N1 (stereo not drawn) [Code Number 11] | 0.8 | 3 | 37
17 | CN(C)CCCC1Cc2ccccc2C(c2ccccc2)=N1 (stereo not drawn) [compound 38] | 3.4 |  | 85
18 | CN1CCN(CC2Cc3c(Cl)cccc3C(c3ccccc3)=N2)CC1 (stereo not drawn) [compound 94] |  | 22 | 140
19 | CN(C)CCC1COc2ccccc2C(c2ccccc2)=N1 (stereo not drawn) [compound 45] | 12 | 16.5 | 160
20 | CN1CCN(CCC2Cc3c(Cl)cccc3C(c3ccccc3)=N2)CC1 (stereo not drawn) [compound 106] |  | 12 | 145
21 | CN(C)CCC1C=C(c2ccccc2)c2ccccc2C1 (stereo not drawn) [Code Number 2] | 1 | 7.3 | 110
22 | COc1ccc2c(c1)C(c1ccccc1)=NC(CN(C)C)C2 (stereo not drawn) [compound 13] |  | 3 | 65
23 | Cc1ccc2c(c1)C(c1ccccc1)=NC(CN(C)C)C2 (stereo not drawn) [compound 12] | 15 | 5 | 50
24 | CN(C)CC1Cc2ccccc2C(c2ccccc2)=N1 (stereo not drawn) [compound 6] | 3.5 | 5 | 41
25 | Cc1ccc2c(c1)C(c1ccccc1)=NC(CN1CCN(C)CC1)C2 (stereo not drawn) [compound 99] |  | 30 | 130
26 | COc1cc2c(cc1OC)C(c1ccccc1)=NC(CN(C)C)C2 (stereo not drawn) [compound 14] |  | 15 | 135
27 | CN(C)CC1Cc2ccc(F)cc2C(c2ccccc2)=N1 (stereo not drawn) [compound 10] | 2.8 | 4 | 60
28 | CN(C)CCC1Cc2c(Cl)cccc2C(c2ccccc2)=N1 (stereo not drawn) [compound 18] |  | 1 | 70
